Reference: patent US6683184B2, “Piperazine derivatives and process for the preparation thereof” (Samjin Pharmaceutical Co., Ltd., priority 1999, dated 2004)
Values after ≈ are worked out from the molar mass of the structure shown.

Key:
Assay type in all cases: cell-based
[1] = system: P388 (mouse lymphoid neoplasma cell); experiment: In vitro antitumor effects against animal leukemia cells, dye exclusion assay; conditions: 48 hours, trypan blue dye exclusion, read-out: P388 (IC50, concentration showing 50% cell growth inhibition compared with the control)
Description: In vitro antitumor effects against animal leukemia cells.
Tumor cell line: P388 (mouse lymphoid neoplasma cell)
B. Method: Dye Exclusion Assay.
1) Concentrations of P388 cells being cultured in RPMI 1640 media containing 10% FBS were regulated to 1×10^6 cells/ml.
2) Sample drugs of respective concentrations diluted in the ratio of log doses were added into each cell culture and cultured at 37° C., for 48 hours, in […] incubator, and then viable cell numbers were measured by dye exclusion test using trypan blue.

[2] = system: A549 (human non-small lung cell); experiment: In vitro antitumor effect against human tumor cell lines, SRB assay, A549; conditions: A549 cells, 48 hours; for IC50: Homo sapiens, read-out: ED50 A 549
Description: (§1) In vitro antitumor effect against human tumor cell lines.
(§2) a. Human solid tumor cell lines, A549(non-small lung cell), SKMEL-2(melanoma), HCT-15(colon), SKOV-3(ovarian), XF-498(CNS) were cultured at 37° C. in 5% CO2 incubators using RPMI 1640 media containing 10% FBS, while they were transfer-cultured successively once or twice per week. Cell cultures were dissolved in a solution of 0.25% trypsin and 3 mM CDTA PBS(−) and then cells were separated from media which the cells were sticked on.
(§3) b. 5×10^3˜2×10^4 cells were added into each well of 96-well plate and cultured in 5% CO2 incubator, at 37° C., for 24 hours.
(§4) c. Each sample drug was dissolved in a little DMSO and diluted with the used medium to a prescribed concentration for experiments, wherein the final concentration of DMSO was controlled below 0.5%.
(§5) d. Medium of each well cultured for 24 hours as above b. was removed by aspiration. Each 200 μl of drug samples prepared in c. was added into each well and the wells were cultured for 48 hours. Tz(time zero) plates were collected at the point of time drugs were added.
(§6) e. According to the SRB assay method, cell fixing with TCA, staining with 0.4% SRB solution, washing with 1% acetic acid and elution of dye with 10 mM Tris solution were carried out on Tz plates and culture-ended plates, whereby OD values were measured at 520 nm.
(§7) a. Time zero(Tz) value was determined with measuring the SRB protein amounts of the Tz plates collected at the point of time drugs were added.
(§8) b. Control value(C) was determined with the OD values of wells untreated with a drug.
(§9) c. Drug-treated test value(T) was determined with the OD values of drug-treated wells.
(§10) d. Effects of drugs were estimated with growth stimulation, net growth inhibition, net killing etc., being calculated from Tz, C and T.
(§11) e. If T≧Tz, cellular response function was calculated by 100×(T−Tz)/(C−Tz), and if T<Tz, by 100×(T−Tz)/Tz.

[3] = system: HCT-15 (human colon); experiment: In vitro antitumor effect against human tumor cell lines, SRB assay, HCT-15; conditions: HCT 15 cells, 48 hours; for IC50: Homo sapiens, read-out: ED50 HCT 15
Description: as §1, §2, §3, §4, §5, §6, §7, §8, §9, §10, §11

[4] = system: SKOV-3 (human ovarian); experiment: In vitro antitumor effect against human tumor cell lines, SRB assay, SKOV-3; conditions: SK-OV-3 cells, 48 hours; for IC50: Homo sapiens, read-out: ED50 SK-OV-3
Description: as §1, §2, §3, §4, §5, §6, §7, §8, §9, §10, §11

[5] = system: XF 498 (human CNS); experiment: In vitro antitumor effect against human tumor cell lines, SRB assay, XF 498; conditions: 48 hours; for IC50: Homo sapiens, XF498, XF-498 cells, read-out: ED50 XF-498
Description: as §1, §2, §3, §4, §5, §6, §7, §8, §9, §10, §11

[6] = system: SKMEL-2 (human melanoma); experiment: In vitro antitumor effect against human tumor cell lines, SRB assay, SKMEL-2; conditions: SK-MEL-2 cells, 48 hours; for IC50: Homo sapiens, read-out: ED50 SK-MEL-2
Description: as §1, §2, §3, §4, §5, §6, §7, §8, §9, §10, §11

| Structure (SMILES) | IC50 [1] [µg/mL] | IC50 [2] [µg/mL] | IC50 [3] [µg/mL] | IC50 [4] [µg/mL] | IC50 [5] [µg/mL] | IC50 [6] [µg/mL] | ED50 A 549 [2] [µg/mL] | ED50 HCT 15 [3] [µg/mL] | ED50 SK-OV-3 [4] [µg/mL] | ED50 XF-498 ([5]; XF-498 cells) [µg/mL] | ED50 SK-MEL-2 [6] [µg/mL] |
| --- | --- | --- | --- | --- | --- | --- | --- | --- | --- | --- | --- |
| COc1nc2ccccc2nc1NC(=S)N1CCN(c2cc(C)cc(C)c2)CC1 [Example 66, 1-[(2-Methoxyquinoxalin-3-yl)aminothiocarbonyl]-4-(3,5-di-methylphenyl)piperazine] | 0.2 (≈ 0.491 µM) | 0.005 (≈ 0.0123 µM) | 0.003 (≈ 0.00736 µM) | 0.008 (≈ 0.0196 µM) | 0.008 (≈ 0.0196 µM) | 0.002 (≈ 0.00491 µM) | – | – | – | – | – |
| COc1nc(C)c(C)nc1N(C)C(=O)N1CCN(c2cc(C)cc(C)c2)CC1 [Example 20, 1-[(5,6-Dimethyl-2-methoxypyrazin-3-yl)N-methylaminocarbonyl]-4-(3,5-dimethylphenyl)piperazine] | 1.2 (≈ 3.13 µM) | 0.323 (≈ 0.842 µM) | 0.295 (≈ 0.769 µM) | 0.904 (≈ 2.36 µM) | 0.97 (≈ 2.53 µM) | 0.211 (≈ 0.55 µM) | – | – | – | – | – |
| COc1nc(C)c(C)nc1N(C)C(=O)N1CCN(c2cc(Cl)cc(Cl)c2)CC1 [Example 21, 1-[(5,6-Dimethyl-2-methoxypyrazin-3-yl)N-methylaminocarbonyl]-4-(3,5-dichlorophenyl)piperazine] | 0.8 (≈ 1.89 µM) | 0.038 (≈ 0.0896 µM) | 0.008 (≈ 0.0189 µM) | 0.093 (≈ 0.219 µM) | 0.097 (≈ 0.229 µM) | 0.024 (≈ 0.0566 µM) | – | – | – | – | – |
| COc1nc(C)c(C)nc1NC(=S)N1CCN(c2cc(C)cc(C)c2)CC1 [Example 30, 1-[(5,6-Dimethyl-2-methoxypyrazin-3-yl)aminothiocarbonyl]-4-(3,5-dimethylphenyl)piperazine] | 0.07 (≈ 0.182 µM) | 0.0006 (≈ 0.00156 µM) | 0.0007 (≈ 0.00182 µM) | 0.0007 (≈ 0.00182 µM) | 0.0005 (≈ 0.0013 µM) | < 0.0001 | – | – | – | – | – |
| COc1nc2ccccc2nc1NC(=O)N1CCN(c2cc([N+](=O)[O-])cc([N+](=O)[O-])c2)CC1 [Example 48, 1-[(2-Methoxyquinoxalin-3-yl)aminocarbonyl]-4-(3,5-dinitrophenyl)piperazine] | 0.39 (≈ 0.86 µM) | 0.001 (≈ 0.00221 µM) | 0.002 (≈ 0.00441 µM) | 0.007 (≈ 0.0154 µM) | 0.004 (≈ 0.00882 µM) | 0.0003 (≈ 0.000662 µM) | – | – | – | – | – |
| COc1ccccc1N1CCN(C(=O)Nc2nc3ccccc3nc2OC)CC1 [Example 37, 1-[(2-Methoxyquinoxalin-3-yl)aminocarbonyl]-4-(2-methoxyphenyl)-piperazine] | 0.3 (≈ 0.762 µM) | 0.01 (≈ 0.0254 µM) | 0.009 (≈ 0.0229 µM) | 0.02 (≈ 0.0508 µM) | 0.003 (≈ 0.00762 µM) | 0.02 (≈ 0.0508 µM) | – | – | – | – | – |
| CCOc1nc2ccccc2nc1NC(=O)N1CCN(c2cc(C)cc(C)c2)CC1 [Example 74, 1-[(2-Ethoxyquinoxalin-3-yl)aminocarbonyl]-4-(3,5-dimethylphenyl)piperazine] | 0.68 (≈ 1.68 µM) | 0.002 (≈ 0.00493 µM) | 0.028 (≈ 0.0691 µM) | 0.038 (≈ 0.0937 µM) | 0.024 (≈ 0.0592 µM) | 0.003 (≈ 0.0074 µM) | – | – | – | – | – |
| COc1cc(OC)cc(N2CCN(C(=S)Nc3nc4ccccc4nc3OC)CC2)c1 [Example 64, 1-[(2-Methoxyquinoxalin-3-yl)aminothiocarbonyl]-4-(3,5-dimethoxyphenyl)piperazine] | 0.34 (≈ 0.774 µM) | 0.019 (≈ 0.0432 µM) | 0.032 (≈ 0.0728 µM) | 0.057 (≈ 0.13 µM) | 0.014 (≈ 0.0319 µM) | 0.011 (≈ 0.025 µM) | – | – | – | – | – |
| COc1nc(C)c(C)nc1NC(=O)N1CCN(c2cc([N+](=O)[O-])cc([N+](=O)[O-])c2)CC1 [Example 15, 1-[(5,6-Dimethyl-2-methoxypyrazin-3-yl)aminocarbonyl]-4-(3,5-dinitrophenyl)piperazine] | 0.7 (≈ 1.62 µM) | 0.079 (≈ 0.183 µM) | 0.071 (≈ 0.165 µM) | 0.184 (≈ 0.427 µM) | 0.096 (≈ 0.223 µM) | 0.038 (≈ 0.0881 µM) | – | – | – | – | – |
| COC(=O)c1cc(N=C(NO)N2CCN(c3cc(F)cc(F)c3)CC2)c(OC)nc1C [Example 120, N-Hydroxy-N′-(5-methoxycarbonyl-2-methoxy-6-methylpyridin-3-yl)-[4-(3,5-difluorophenyl)piperazin-1-yl]carboxyimidamide] | – | – | – | – | – | – | 0.64 (≈ 1.47 µM) | 0.30 (≈ 0.689 µM) | 0.73 (≈ 1.68 µM) | 0.82 (≈ 1.88 µM) | 0.28 (≈ 0.643 µM) |
| CCOc1nc2ccccc2nc1NC(=O)N1CCN(c2cc(OC)cc(OC)c2)CC1 [Example 72, 1-[(2-Ethoxyquinoxalin-3-yl)aminocarbonyl]-4-(3,5-dimethoxyphenyl)piperazine] | 0.1 (≈ 0.229 µM) | 0.0001 (≈ 0.000229 µM) | 0.0001 (≈ 0.000229 µM) | 0.0007 (≈ 0.0016 µM) | 0.0001 (≈ 0.000229 µM) | < 0.0001 | – | – | – | – | – |

Now from value to compound, other results behind:

| IC50 [1] [µg/mL] | IC50 [2] [µg/mL] | IC50 [3] [µg/mL] | IC50 [4] [µg/mL] | IC50 [5] [µg/mL] | IC50 [6] [µg/mL] | Structure (SMILES) | ED50 A 549 [2] [µg/mL] | ED50 HCT 15 [3] [µg/mL] | ED50 SK-OV-3 [4] [µg/mL] | ED50 XF-498 ([5]; XF-498 cells) [µg/mL] | ED50 SK-MEL-2 [6] [µg/mL] |
| --- | --- | --- | --- | --- | --- | --- | --- | --- | --- | --- | --- |
| 0.1 (≈ 0.265 µM) | 0.008 (≈ 0.0212 µM) | 0.001 (≈ 0.00265 µM) | 0.069 (≈ 0.183 µM) | 0.017 (≈ 0.045 µM) | 0.008 (≈ 0.0212 µM) | COc1nc(C)c(C)nc1NC(=O)N1CCN(c2cc(F)cc(F)c2)CC1 [Example 12, 1-[(5,6-Dimethyl-2-methoxypyrazin-3-yl)aminocarbonyl]-4-(3,5-difluorophenyl)piperazine] | – | – | – | – | – |
| 0.04 (≈ 0.0958 µM) | 0.0001 (≈ 0.00024 µM) | 0.0001 (≈ 0.00024 µM) | 0.0006 (≈ 0.00144 µM) | 0.0001 (≈ 0.00024 µM) | < 0.0001 | COc1cc(OC)cc(N2CCN(C(=S)Nc3nc(C)c(C)nc3OC)CC2)c1 [Example 28, 1-[(5,6-Dimethyl-2-methoxypyrazin-3-yl)aminothiocarbonyl]-4-(3,5-dimethoxyphenyl)piperazine] | – | – | – | – | – |
| 0.2 (≈ 0.481 µM) | 0.0064 (≈ 0.0154 µM) | 0.08 (≈ 0.193 µM) | 0.143 (≈ 0.344 µM) | 0.093 (≈ 0.224 µM) | 0.043 (≈ 0.103 µM) | COc1cc(OC)cc(N2CCN(C(=O)N(C)c3nc(C)c(C)nc3OC)CC2)c1 [Example 19, 1-[(5,6-Dimethyl-2-methoxypyrazin-3-yl)N-methylaminocarbonyl]-4-(3,5-dimethoxyphenyl)piperazine] | – | – | – | – | – |
| 0.3 (≈ 0.808 µM) | 0.032 (≈ 0.0862 µM) | 0.019 (≈ 0.0512 µM) | 0.088 (≈ 0.237 µM) | 0.084 (≈ 0.226 µM) | 0.029 (≈ 0.0781 µM) | COc1ccccc1N1CCN(C(=O)Nc2nc(C)c(C)nc2OC)CC1 [Example 2, 1-[(5,6-Dimethyl-2-methoxypyrazin-3-yl)aminocarbonyl]-4-(2-methoxyphenyl)piperazine] | – | – | – | – | – |
| 0.01 (≈ 0.0249 µM) | 0.0016 (≈ 0.00399 µM) | 0.002 (≈ 0.00498 µM) | 0.0064 (≈ 0.0159 µM) | 0.0022 (≈ 0.00548 µM) | 0.0015 (≈ 0.00374 µM) | COc1cc(OC)cc(N2CCN(C(=O)Nc3nc(C)c(C)nc3OC)CC2)c1 [Example 3, 1-[(5,6-Dimethyl-2-methoxypyrazin-3-yl)aminocarbonyl]-4-(3,5-dimethoxyphenyl)piperazine] | – | – | – | – | – |
| 0.02 (≈ 0.0487 µM) | – | – | – | – | – | COc1nc(C)c(C)nc1NC(=O)N1CCN(c2cc(Cl)cc(Cl)c2)CC1 [Example 11, 1-[(5,6-Dimethyl-2-methoxypyrazin-3-yl)aminocarbonyl]-4-(3,5-dichlorophenyl)piperazine] | – | – | – | – | – |
